From patent publication US20250019357A1, “[…] MORPHIC FORMS AND MIXTURES FOR THE TREATMENT OF MENTAL DISORDERS OR MENTAL ENHANCEMENT” (TACTOGEN INC, priority 2021, published 2025)

Assays:
SERT [1] = target: T1, SERT (Rattus norvegicus (Rat), UniProt P31652); test: In vitro rat synaptosome serotonin uptake inhibition assay (Examples 9, 58); format: biochemical; settings: rat synaptosomes
Description: (§1) FIG. 7A is a graph showing results from an in vitro rat synaptosome serotonin uptake inhibition assay. […] Details and procedural information for this assay are described in Example 9. The x-axis is the log [dose] concentration measured in molar and the y-axis is the [^3H]-labeled 5-HT reuptake measured in percent.
as §1, with “176” for “7A”, “58.” for “9.”, “x-axis” for “x-axis is”, “concentration is” for “concentration”, “Molar units” for “molar”, “percent of maximum produced by the comparison releaser.” for “percent.”

SERT [2] = target: T1, SERT; test: In vitro rat synaptosome serotonin release (efflux) assay (Examples 9, 58); format: biochemical; settings: rat synaptosomes
Description: as §1, with “7B” for “7A”, “release” for “uptake inhibition”, “release” for “reuptake”
as §1, with “177” for “7A”, “release” for “uptake inhibition”, “58.” for “9.”, “x-axis” for “x-axis is”, “release” for “reuptake”

5-HT2B = 5-HT2B (Homo sapiens (Human), UniProt P41595); test: 5-HT2B antagonist assay (DiscoveRx Calcium NWPLUS, FLIPR); format: cell-based
5-HT2B, sequence (P41595 whole entry): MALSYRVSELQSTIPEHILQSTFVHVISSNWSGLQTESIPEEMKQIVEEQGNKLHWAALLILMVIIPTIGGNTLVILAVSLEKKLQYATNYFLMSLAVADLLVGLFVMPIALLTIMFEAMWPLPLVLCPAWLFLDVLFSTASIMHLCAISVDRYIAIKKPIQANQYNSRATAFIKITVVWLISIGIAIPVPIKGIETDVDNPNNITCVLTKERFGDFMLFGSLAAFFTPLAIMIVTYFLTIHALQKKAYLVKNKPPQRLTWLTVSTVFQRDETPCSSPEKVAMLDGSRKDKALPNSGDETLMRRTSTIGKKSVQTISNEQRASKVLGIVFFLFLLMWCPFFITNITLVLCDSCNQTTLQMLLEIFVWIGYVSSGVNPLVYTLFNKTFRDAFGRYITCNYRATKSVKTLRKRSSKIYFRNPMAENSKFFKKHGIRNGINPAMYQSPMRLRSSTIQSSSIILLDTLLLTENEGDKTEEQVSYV
Method: 5-HT2A and 5-HT2B Agonist and Antagonist Assays
The DiscoveRx Calcium NWPLUS Assay was used for detection of changes in intracellular calcium as signaled by an increase of dye fluorescence in cells expressing 5-HT2A receptors. Signal was measured on a fluorescent plate reader equipped with fluidic handling capable of detecting rapid changes in fluorescence upon compound stimulation.
To conduct the assay, cell lines were expanded from freezer stocks according to standard procedures. Cells (10,000cells/well) were seeded in a total volume of 50 μL ([…]) into black-walled, clear-bottom, Poly-D-lysine coated 384-well microplates and incubated at 37-C for the appropriate time prior to testing. DMSO concentration for all readouts was <0.2%. […]
Compound agonist activity was measured on a FLIPR Tetra. Calcium mobilization was monitored for 2 minutes with a 5 second baseline read. FLIPR read-Area under the curve was calculated for the two minute read. Compound activity was analyzed using CBIS data analysis suite (ChemInnovation, CA). Percentage activity was calculated as 100%×(mean RFU of test sample−mean RFU of vehicle control)/(mean MAX RFU control ligand −mean RFU of vehicle control). For antagonist mode assays, percentage inhibition was calculated as 100%×(1−(mean RFU of test sample−mean RFU of vehicle control)/(mean RFU of EC80 control−mean RFU of vehicle control)). […]

For `CCC(Cc1ccc2ccoc2c1)NC` (racemic) [RS-6-MBPB], the “[3H]-labeled 5-HT reuptake (serotonin uptake inhibition)” value (SERT [1]) was “rapidly increases extracellular serotonin by inhibiting reuptake”, the “[3H]-labeled 5-HT release” value (SERT [2]) was “rapidly increases extracellular serotonin by stimulating release” and the IC50 (5-HT2B) was 3.08 µM.
